From patent US20230285417A1, “FORMULATIONS OF 19-NOR C3,3-DISUBSTITUTED C21-N-PYRAZOLYL STEROID AND METHODS OF USE THEREOF” (priority 2020, published 2023)

Legend:
Format in all cases: physicochemical
[1] = Solubility of the compound of formula (I) in aqueous media (water, pH 1.2 simulated gastric fluid, FaSSIF)
Text: (§1) The compound of formula (I) belongs in the high permeability, poor solubility drug classification (BCS 2) described in the Biopharmaceutics Classification System (BCS). In the improved widely accepted Developability Classification System (DCS) discussed by Butler and Dressman, the high permeability low solubility category is further divided into two classifications. Specifically, the ratio of the dose to the solubility of the drug in FaSSIF can be used to predict the extent of human absorption. Class 2a describes compounds that have good permeability and poor solubility with a smaller dose to solubility ratio. Class 2b describes compounds that have a higher dose to solubility ratio and likely will be incompletely absorbed unless the drug is formulated in an already solubilized form, and therefore might present a major challenge to the formulator. […] That is, even for a dose of 10 mg about only 1.2% of the dose of the drug may dissolve in a glass of water or FaSSIF. For Class 2b compounds the system predicts that particle reduction should have no impact on bioavailability. Martinez and Amidon offer: “In the case of solubility-limited absorption particle size exerts minimal effect on the fraction of drug absorbed. […]

[2] = Biopharmaceutics Classification System (BCS) classification; settings: high permeability, poor solubility
Text: as §1

[3] = Particle size distribution by laser diffraction (Malvern Mastersizer 2000); settings: for D10 / D50 / D90: lot of micronized Form C of Compound 1 used in capsules of Table 16
Procedure: The particle size distribution of Compound 1 was measured using a laser diffraction method. A sample of Compound 1 was either dispersed in water or wetted and dispersed in 0.2% w/v Tween 80 in water to a final concentration spanning approximately 2.5 to 60 mg/mL. Using a Malvern Mastersizer 2000 with a Hydro 2000S sample dispersion unit the obscuration was adjusted to between 10 and 30%. The stir speed was adjusted to 2250-2500 rpm, pre-measurement delay to approximately 30 s, sample measurement time to around 10-15 s, background measurement time to around 10-15 s and the particle shape assumed to be irregular. The samples were at a concentration between 0.0032-0.0044% vol and had specific surface area between 1.65 and 2.10 m2/g, a surface weighted mean between 2.87 and 3.64 μm, and a volume weighed mean between 3.62 and 4.67 μm. The measurements were obtained using the Mie scattering model (material refractive index=1.520, dispersant refractive index=1.330, absorption=0.001 or 0.1) with normal sensitivity.
Representative particle size distribution data for lots of un-micronized and micronized Form C of Compound 1 are shown in Table 7. In addition, representative particle size distribution for micronized Form A of Compound 1 is also included in Table 7. FIG. 4A, FIG. 4B and FIG. 4C also contain particle size distribution profiles for three representative lots of micronized Form C of Compound 1. FIG. 13A and FIG. 13B contain particle size distribution profiles for micronized and un-micronized Form C of Compound 1a. FIG. 14A and FIG. 14B contain particle size distribution profiles for micronized and un-micronized Form C of Compound 1b. FIG. 15A and FIG. 15B contain particle size distribution profiles for micronized and un-micronized Form C of Compound 1c. FIG. 16A and FIG. 16B contain particle size distribution profiles for micronized and un-micronized Form C of Compound 1d.

[4] = lot used in Composition 30, 8 kg blend batch, 20 mg dose strength
[5] = lot used in Composition 30, 12 kg blend batch, 30 mg dose strength
[6] = lot used in Composition 30, 34.7 kg blend batch, 20 mg dose strength
[7] = lot used in Composition 30, 52 kg blend batch, 30 mg dose strength

C[C@@]1(O)CC[C@H]2[C@H](CC[C@@H]3[C@@H]2CC[C@]2(C)[C@@H](C(=O)Cn4cc(C#N)cn4)CC[C@@H]32)C1 [Compound 1, 1-(2-((3R,5R,8R,9R,10S,13S,14S,17S)-3-hydroxy-3,13-dimethylhexadecahydro-1H-cyclopenta[a]phenanthren-17-yl)-2-oxoethyl)-1H-pyrazole-4-carbonitrile]
% of the dose that may dissolve in a glass of water or FaSSIF ([1]; 10 mg dose): ~1.2% | solubility in aqueous media ([1]; water, pH 1.2 simulated gastric fluid, FaSSIF): practically insoluble | drug classification, Biopharmaceutics Classification System (BCS) [2]: BCS 2

C[C@@]1(O)CC[C@H]2[C@H](CC[C@@H]3[C@@H]2CC[C@]2(C)[C@@H](C(=O)Cn4cc(C#N)cn4)CC[C@@H]32)C1 [Lot A]
D10 ([3]; listed as A): 1.7 μm | D50 ([3]; listed as A): 3.3 μm | D90 ([3]; listed as A): 6.8 μm

C[C@@]1(O)CC[C@H]2[C@H](CC[C@@H]3[C@@H]2CC[C@]2(C)[C@@H](C(=O)Cn4cc(C#N)cn4)CC[C@@H]32)C1 [Lot B]
D10 ([3]; listed as B): 1.9 μm | D50 ([3]; listed as B): 3.5 μm | D90 ([3]; listed as B): 6.6 μm

C[C@@]1(O)CC[C@H]2[C@H](CC[C@@H]3[C@@H]2CC[C@]2(C)[C@@H](C(=O)Cn4cc(C#N)cn4)CC[C@@H]32)C1 [Lot C]
D10 ([3]; listed as C): 2.1 μm | D50 ([3]; listed as C): 4.0 μm | D90 ([3]; listed as C): 7.7 μm

C[C@@]1(O)CC[C@H]2[C@H](CC[C@@H]3[C@@H]2CC[C@]2(C)[C@@H](C(=O)Cn4cc(C#N)cn4)CC[C@@H]32)C1 [Micronized Form C of Compound 1]
Particle Size Distribution D10 [3, 4]: 1.7 | Particle Size Distribution D50 [3, 4]: 3.2 | Particle Size Distribution D90 [3, 4]: 6.1 | Particle Size Distribution D10 [3, 5]: 1.7 | Particle Size Distribution D50 [3, 5]: 3.2 | Particle Size Distribution D90 [3, 5]: 6.1 | Particle Size Distribution D10 [3, 6]: 1.8 | Particle Size Distribution D50 [3, 6]: 3.3 | Particle Size Distribution D90 [3, 6]: 6.5 | Particle Size Distribution D10 [3, 7]: 2.1 | Particle Size Distribution D50 [3, 7]: 4.1 | Particle Size Distribution D90 [3, 7]: 8.0
